{"source": "patent US8669282B2", "about": "“Companion animal compositions including lipoic acid and methods of use thereof” (Hill's Pet Nutrition, Inc., priority 2000, dated 2014)", "key": {"plasma metabolites": {"tested_on": "plasma metabolites", "experiment": "Plasma metabolomics, fold change at day 30", "type": "in vivo, dogs", "description": "Plasma metabolites were analyzed and were compared as fold change relative to the control fed dogs.\nTable 5 illustrates the change in pyruvate blood levels in of dogs fed a control diet compared with dogs fed a control plus fish oil and a control plus lipoic acid.\nTable 22 illustrates change in metabolite measured in blood samples for dogs after being fed a control diet compared with dogs fed a pet food including lipoic acid for 30 days."}, "[1]": {"tested_on": "cartilage markers (CPII, CTXII, COMP)", "experiment": "Serum cartilage (arthritic) markers by ELISA", "type": "in vivo, dogs", "conditions": "for Change CPII / Change CTXII / CPII: blood", "description": "Serum cartilage markers were measured using ELISA based kits to determine concentrations of cartilage markers. Day 0 was used as a covariate in the analysis to adjust for baseline values.\nTable 7 illustrates the change in blood level of arthritic markers in dogs after being fed a control diet compared with dogs fed a control plus fish oil and a control plus lipoic acid for 30 days and measured again at day 90.\nTable 12 illustrates arthritic makers measured in blood samples for dogs after being fed a control diet compared with dogs fed a pet food including lipoic acid for 90 days."}, "[2]": {"tested_on": "genes related to cartilage and energy metabolism", "experiment": "Differential gene expression profile, whole blood RNA, canine 2 Affymetrix genechips", "type": "in vivo, dogs", "text": "Thirty (30) dogs were used to determine the effect of lipoic acid when compared to an AAFCO control food or a test food containing fish oil.\nA differential gene expression profile was studied between an AAFCO control food, a food containing fish oil, and a food containing lipoic acid. At a minimum of 1.3 fold change, a list of 1212 genes was generated compared to the AAFCO control and 1896 genes compared to the food containing fish oil at d 30.\nTotal RNAs were isolated from whole blood samples using the PAXgene RNA isolation kit. All measurements were done with the canine 2 Affymetrix genechips. For statistical analysis, all measurements were normalized with RMA. All analysis was preformed using Partek. An ANOVA t-test was performed for genes that are differentially expressed between the control and test foods were selected based on p-value cutoff 0.1, fold change>+/−1.3.\nTable 9 illustrates the change in genes related to cartilage metabolism and energy metabolism in dogs after being fed a control diet compared with dogs fed a control plus fish oil and a control plus lipoic acid for 90 days."}, "canine bone cells": {"tested_on": "canine bone cells", "experiment": "Genes related to cartilage metabolism altered in canine bone cells", "type": "in vivo, dogs", "conditions": "90 days", "text": "Table 8 illustrates the directional change (up regulation or down regulation) in genes related to cartilage metabolism in dogs after being fed a control diet compared with dogs fed a control plus fish oil and a control plus lipoic acid for 90 days in canine bone cells."}, "GSH:GSSG": {"tested_on": "GSH:GSSG", "experiment": "GSH:GSSG ratio in blood lymphocytes of dogs fed dl-alpha-lipoic acid in extruded food", "type": "in vivo", "conditions": "chronic feeding in diet", "text": "Thirty (30) adult, random source, dogs were utilized for this study. Dogs were at least 10 months of age, not pregnant, not lactating and of reasonable body weight prior to start of test. Animals were randomized into 5 groups for dietary treatment with 3 males and 3 females per each group.\nAll dogs were fed a control food (0 ppm dl-alpha-lipoic acid added) that met or exceeded all recommendations for nutrients as proposed by the American Association of Feed Control Officials (AAFCO 2000) during a 2 week prefeeding period (Table 2). Following the prefeeding period dogs were randomized into 5 treatment groups with one of the following dl-alpha lipoic acid target-inclusions (dry matter basis): 0 ppm, 150 ppm, 1500 ppm, 3000 ppm, 4500 ppm. […]\nSolvents and separation conditions were as described (Fariss, Jones). Levels of GSH and GSSG were quantified relative to authentic standards. […]\nComparison of values for clinical chemistry, hematology and body weights vs baseline were analyzed by way of paired t-test on SAS for windows with significance set at P<0.05. Means of values at each measured time point were separated by a one-way ANOVA with significance set at P<0.05. The difference in GSH:GSSG between day 84 and baseline were analyzed between groups by way of SAS for windows in a one-way ANOVA with significance set at P<0.05."}, "[3]": {"conditions": "blood, day 30, day 0 as covariate"}, "[4]": {"conditions": "test food containing 150 ppm lipoic acid, fold change >+/-1.3, p cutoff 0.1"}}}
{"smiles": "O=C(O)CCCCC1CCSS1", "note": "(racemic) [Lipoic acid, dl-alpha-lipoic acid]", "values": [{"measurement": "Fold change in pyruvate, Lipoic acid vs Control", "setting": "plasma metabolites; [3]", "value": 0.5379}, {"measurement": "Fold change in pyruvate, Lipoic acid vs Fish oil", "setting": "plasma metabolites; [3]", "value": 0.6274}, {"measurement": "metabolite hydroxyproline in plasma, in words", "setting": "plasma metabolites; dogs fed a food containing lipoic acid", "value": "reduced"}, {"measurement": "Change CPII", "setting": "[1]; Day 30", "value": "−95.10"}, {"measurement": "Change CTXII", "setting": "[1]; Day 30", "value": "−5.60"}, {"measurement": "CPII", "setting": "[1]; Day 30, d 0 as covariate", "value": 986.28, "unit": "ng/mL"}, {"measurement": "Change CPII", "setting": "[1]; Day 90", "value": "−232.70"}, {"measurement": "Change CTXII", "setting": "[1]; Day 90", "value": "−0.59"}, {"measurement": "CPII", "setting": "[1]; Day 90, d 0 as covariate", "value": 848.0, "unit": "ng/mL"}, {"measurement": "type II collagen C-propeptide and carboxy-terminal crosslinked telopeptide fragment of type II collagen, in words", "setting": "[1]; compared with a similar food without lipoic acid", "value": "greater decrease"}, {"measurement": "Fold change Facilitated glucose transporter 6", "setting": "[2]; lipoic acid vs. control", "value": 1.3}, {"measurement": "Fold change chondroitan sulfate protcoglycan 2 (veriscan)", "setting": "[2]; lipoic acid vs. control", "value": 1.5}, {"measurement": "Fold change N-acetylgalactosaminyl-transferase 1", "setting": "[2]; lipoic acid vs. fish oil", "value": 1.3}, {"measurement": "number of genes with altered expression vs AAFCO control food", "setting": "[2]; [4]", "value": 1212, "unit": "genes"}, {"measurement": "number of genes with altered expression vs test food containing fish oil", "setting": "[2]; [4]", "value": 1896, "unit": "genes"}, {"measurement": "MMP3 gene, directional change", "setting": "canine bone cells; probe 1582602_at", "value": "Down"}, {"measurement": "TIMP2 gene, directional change", "setting": "canine bone cells; probe 1582708_at", "value": "up"}, {"measurement": "Prolyl 4-hydroxylase gene, directional change", "setting": "canine bone cells; probe 1600479_at", "value": "up"}, {"measurement": "reduced glutathione (GSH) to oxidized glutathione (GSSG) ratio, in words", "setting": "GSH:GSSG", "value": "improves"}]}
